Values quoted from earlier work as cited in patent publication US9592230B2, “Substituted imidazoles as PDE10A inhibitors” (priority 2008, dated 2017).

Experiments:
[1] = system: amphetamine induced hyperactivity; conditions: rats
[2] = system: cataleptic effect of the D2 receptor antagonist haloperidol; conditions: rats
[3] = system: hyperactivity in rats induced by PCP

For `COc1ccc(Cc2nccc3cc(OC)c(OC)cc23)cc1OC` [Papaverine, papaverine], the “reduction of amphetamine induced hyperactivity” value [1] is listed as “insignificant”, the “catalepsy on its own” value ([2]; alone) is listed as “did not cause catalepsy on its own” and the “effect on the cataleptic effect of haloperidol” value ([2]; together with haloperidol) is listed as “potentiated the cataleptic effect”. For the same molecule, the “hyperactivity induced by PCP” value [3] was “reduced hyperactivity”.
